In the NIST ThermoML archive (doi:10.1016/j.jct.2012.12.001):

Experiment: heat capacity at constant pressure per volume; xn = mol fraction of the nth substance listed
Conditions: 101 kPa, Liquid, DSC, x2 = 0.713

CCCCCCCCCCCCCCCCCC [octadecane] + N#Cc1ccccc1
Conditions	heat capacity [J/K/m3]
311.31 K	1755300
311.34 K	1755200
311.37 K	1751900
311.39 K	1755200
311.42 K	1754200
311.45 K	1754700
311.48 K	1751100
311.51 K	1751000
311.54 K	1753000
311.56 K	1754300
311.59 K	1755100
311.62 K	1752800
311.65 K	1748600
311.68 K	1753400
311.7 K	1751800
311.73 K	1751000
311.76 K	1752000
311.79 K	1748500
311.82 K	1747200
311.85 K	1749600
311.87 K	1749800
311.9 K	1751600
311.93 K	1750300
311.96 K	1749700
311.99 K	1747400
312.01 K	1746900
312.04 K	1752800
312.07 K	1750900
312.1 K	1745700
312.13 K	1749200
312.15 K	1747500
312.18 K	1746000
312.21 K	1746700
312.24 K	1746500
312.27 K	1747800
312.3 K	1746300
312.32 K	1744700
312.35 K	1746400
312.38 K	1744700
312.41 K	1744900
312.44 K	1743500
312.46 K	1743700
312.49 K	1747600
312.52 K	1745100
312.55 K	1746800
312.58 K	1745400
312.6 K	1744400
312.63 K	1744300
312.66 K	1743700
312.69 K	1745000
312.72 K	1743800
312.75 K	1744000
312.77 K	1743700
312.8 K	1741400
312.83 K	1742500
312.86 K	1743700
312.88 K	1745000
312.91 K	1746300
312.94 K	1744500
312.97 K	1744100
313 K	1743500
313.03 K	1742300
313.05 K	1742800
313.08 K	1741900
313.11 K	1742400
313.14 K	1742800
313.17 K	1739000
313.19 K	1743700
313.22 K	1740000
313.25 K	1739100
313.28 K	1738800
313.31 K	1739500
313.33 K	1740400
313.36 K	1741400
313.39 K	1740700
313.42 K	1739700
313.45 K	1740900
313.48 K	1742600
313.5 K	1740800
313.53 K	1739000
313.56 K	1737700
313.59 K	1739600
313.62 K	1740700
313.64 K	1741100
313.67 K	1740500
313.7 K	1740400
313.73 K	1741200
313.76 K	1739900
313.79 K	1739100
313.81 K	1739300
313.84 K	1739200
313.87 K	1738900
313.9 K	1738100
313.93 K	1738700
313.95 K	1735100
313.98 K	1738800
314.01 K	1737700
314.04 K	1736700
314.07 K	1735400
314.09 K	1737000
314.12 K	1736800
314.15 K	1737300
314.18 K	1733500
314.21 K	1737800
314.24 K	1735200
314.26 K	1736900
314.29 K	1735200
314.32 K	1736400
314.35 K	1737400
314.38 K	1736600
314.4 K	1738700
314.43 K	1736600
314.46 K	1737000
314.49 K	1735500
314.52 K	1735300
314.54 K	1735400
314.57 K	1735300
314.6 K	1735500
314.63 K	1734500
314.66 K	1737100
314.68 K	1735100
314.71 K	1733900
314.74 K	1734500
314.77 K	1733900
314.8 K	1737400
314.82 K	1736200
314.85 K	1735600
314.88 K	1735100
314.91 K	1734300
314.94 K	1734100
314.96 K	1733300
314.99 K	1735100
315.02 K	1735000
315.05 K	1735200
315.08 K	1732600
315.2 K	1734500
315.38 K	1734200
315.57 K	1733800
315.76 K	1733400
315.95 K	1733200
316.14 K	1733100
316.33 K	1732700
316.52 K	1732000
316.71 K	1731600
316.9 K	1731300
317.09 K	1731000
317.28 K	1730800
317.47 K	1730300
317.66 K	1730100
317.85 K	1730000
318.03 K	1729900
318.22 K	1729800
318.41 K	1729400
318.6 K	1729300
318.79 K	1729200
318.98 K	1729000
319.17 K	1728800
319.36 K	1728600
319.55 K	1728600
319.74 K	1728300
319.93 K	1728200
320.12 K	1728000
320.31 K	1728000
320.5 K	1728000
320.68 K	1728000
320.87 K	1727900
321.06 K	1727600
321.25 K	1727500
321.44 K	1727400
321.63 K	1727200
321.82 K	1727200
322.01 K	1727300
322.2 K	1727200
322.39 K	1726900
322.58 K	1726600
322.76 K	1726900
322.95 K	1726900
323.14 K	1726800
323.33 K	1726700
323.52 K	1726500
323.71 K	1726800
323.9 K	1726900
324.09 K	1726700
324.28 K	1726700
324.47 K	1726600
324.66 K	1726600
324.85 K	1726700
325.04 K	1726500
325.23 K	1726500
325.41 K	1726500
325.6 K	1726500
325.79 K	1726500
325.98 K	1726300
326.17 K	1726400
326.36 K	1726600
326.55 K	1726500
326.74 K	1726700
326.93 K	1726700
327.12 K	1726400
327.31 K	1726600
327.5 K	1726500
327.69 K	1726700
327.87 K	1726500
328.06 K	1726500
328.25 K	1726700
328.44 K	1726900
328.63 K	1726600
328.82 K	1726700
329.01 K	1726800
329.2 K	1726900
329.39 K	1726800
329.58 K	1726700
329.77 K	1726700
329.95 K	1726800
330.14 K	1726900
330.33 K	1726900
330.52 K	1726800
330.71 K	1727000
330.9 K	1727000
331.09 K	1727200
331.28 K	1727300
331.47 K	1727100
331.66 K	1727200
331.85 K	1727200
332.04 K	1727200
332.23 K	1727200
332.42 K	1727100
332.61 K	1727100
332.79 K	1727400
332.98 K	1727300
333.17 K	1727400
333.36 K	1727300
333.55 K	1727600
333.74 K	1728000
333.93 K	1727700
334.12 K	1727800
334.31 K	1727700
334.5 K	1727900
334.69 K	1728100
334.88 K	1728200
335.06 K	1728100
335.25 K	1728100
335.44 K	1728300
335.63 K	1728300
335.82 K	1728600
336.01 K	1729000
336.2 K	1729000
336.39 K	1728800
336.58 K	1729000
336.77 K	1729100
336.96 K	1729000
337.15 K	1729000
337.34 K	1729200
337.52 K	1729100
337.71 K	1729200
337.9 K	1729200
338.09 K	1729300
338.28 K	1729700
338.47 K	1729900
338.66 K	1729900
338.85 K	1729600
339.04 K	1730200
339.23 K	1730200
339.42 K	1730600
339.61 K	1730700
339.8 K	1730900
339.99 K	1730600
340.17 K	1730800
340.36 K	1730700
340.55 K	1730900
340.74 K	1731100
340.93 K	1730900
341.12 K	1730900
341.31 K	1731200
341.5 K	1731200
